18 molecules from patent US7320785B2, “Compositions and methods for modulation of DARPP-32 phosphorylation” (The Rockefeller University, priority 2001, dated 2008) can be followed below.

In data set [1] the test system is DARPP-32. As to the kind of experiment: DARPP-32 phosphorylation in mouse brain slices, immunoblotting with phosphorylation state-specific antibodies. The conditions noted are these: for phospho-Thr34 DARPP-32 / phospho-Thr75 DARPP-32: prefrontal cortex slices, n=6; for phospho-Thr34 DARPP-32: 2 min of incubation; for phospho-Thr75 DARPP-32: 10 min of incubation.
Data set [2] in a line: pNPP hydrolysis by recombinant PP2C isoforms (phosphatase assay). Type of data set: biochemical, rat. The conditions noted are these: for Vmax / kcat / Km: pNPP as substrate; for Km: 37° C. How it is done:
The activity of PP2C isoforms using pNPP as substrate was assayed as previously described (Brumel et al., 1997). […] The reaction was stopped by addition of 1 ml of 0.1 M NaOH, and the initial rate of p-nitrophenol release was determined spectrophotometrically at 405 nm (using a molar extinction coefficient of 18 000 M−1 cm−1).
(§1) Kinetic parameters (Km and Vmax) were determined from Lineweaver-Burk plots.
Legend Table 7. Enzymatic activities of PP2C isoforms assayed using pNPP as substrate. Phosphatase activity was measured using pNPP as substrate by the change in absorbance at 405 nm. Km and Vmax values were calculated from Lineweaver-Burk plots of the data.

In data set [3] the test system is phospho-Ser137-DARPP-32. In words: Dephosphorylation of phospho-Ser137-DARPP-32 by recombinant PP2C isoforms. It counts as biochemical, rat. The conditions noted are these: [^32P]phospho-Ser137 DARPP-32 as substrate; in the presence of 10 mM Mn^2+. How it is done:
The activity of PP2C isoforms using ^32P-DARPP (phosphorylated at Ser137) was assayed at 37° C. in a reaction mixture containing 25 mM Tris-HCl, pH 7.5, 10 mM MnCl2, 1% BSA, and […] substrate, in a total volume of […]. Reactions were stopped by addition of […] of 50% trichloroacetic acid. Samples were then incubated on ice for 30 min and centrifuged at 10,000 g for 10 min at 4° C. Radioactivity recovered in the supernatant was measured by Cerenkov counting in a scintillation counter (Beckman).
as §1
Legend Table 8. Enzymatic activities of PP2C isoforms assayed using [^32P]phospho-Ser137 DARPP-32 as substrate. Phosphatase activity was measured by the release of ^32P, and Km and Vmax values were calculated from Lineweaver-Burk plots of the data.

[4] abbreviates: neostriatal slices, compound at 100 μM, 2 min incubation, vehicle control = 100.
The mark [5] stands for this setting: neostriatal slices, compound at 100 μM, 10 min incubation, vehicle control = 100.
Setting [6] is: neostriatal slices, compound at 10 μM, 2 min incubation.
[7] abbreviates: neostriatal slices, compound at 10 μM, 10 min incubation.
Where [8] appears, read: Mus musculus, 2 min, read-out: Percent Phospho-Thr34.
The mark [9] stands for this setting: Mus musculus, 10 min, read-out: Percent Phospho-Thr75.
Setting [10] is: Mus musculus, 2 min, read-out: Percent Phospho-Ser137.
Setting [11] is: neostriatal slices, compound at 300 μM, 2 min incubation.

Where two headings read alike, the source gives them in different places. Marks after values point to notes of the source that are not given here.

On to `NCCNS(=O)(=O)c1ccc(Cl)c2ccncc12` [CK1-7], for which, in data set [1] (setting [4]), the “Percent Phospho-Ser137” value is reported as 87(4.0)* Percent and the “Percent Phospho-Thr34” value is listed as 102(11.5) Percent. In addition, the “Percent Phospho-Thr75” value in data set [1] (setting [5]) was 96(10.0) Percent.
Regarding `CNc1cc(NS(=O)(=O)c2ccc(N)cc2)nc(NC)n1` [Ro 07-6790], in data set [1] (setting [6]), the “Percent Phospho-Ser137” value is recorded as 105(7.3) Percent and the “Percent Phospho-Thr34” value is 90(8.7) Percent. For the same molecule, the “Percent Phospho-Thr75” value in data set [1] (setting [7]) is listed as 101(12.5) Percent.
Consider `CN1CCc2cc(Cl)c(O)cc2[C@@H](c2ccccc2)C1` [SCH23390], for which the activity at 10 µM is 76% in data set [1] (setting [8]) and 109% in data set [1] (setting [9]).
Turning to `COc1ccc2c(c1)CC[C@@H]1[C@@H]2CC[C@]2(C)[C@@H](NCCCCCCN3C(=O)C=CC3=O)CC[C@@H]12` [U-73122], in data set [1] (setting [6]), the “Percent Phospho-Ser137” value is reported as 86(6.2)* Percent and the “Percent Phospho-Thr34” value was 117(10.9) Percent. For the same molecule, in data set [1] (setting [7]), the “Percent Phospho-Thr75” value is 90(6.6) Percent.
Turning to `COc1ccc2[nH]cc(CCN)c2c1` [5-MT, 5-methoxytryptamine], the results for the activity at 100 µM in data set [1] (setting [8]) and in data set [1] (setting [9]) were 261 ± 31% and 76 ± 7%, respectively. The “Percent Phospho-Thr34” value in data set [1] (setting [4]) is 261(31.5)* Percent. For the same molecule, the “Percent Phospho-Thr75” value in data set [1] (setting [5]) is 76(7.6)* Percent.
With `c1ccc2sc(N3CCN(Cc4ccc5c(c4)OCO5)CC3)nc2c1` [PPB, 2-[1-(4-Piperonyl)piperazinyl]benzothiazole], in data set [1] (setting [4]), the “Percent Phospho-Ser137” value is listed as 108(2.0) Percent and the “Percent Phospho-Thr34” value is given as 218(36.1)* Percent. Moreover, the “Percent Phospho-Thr75” value in data set [1] (setting [5]) is listed as 72(8.8)* Percent. In data set [1], the “phospho-Thr34 DARPP-32” value is 203±15% and the “phospho-Thr75 DARPP-32” value amounted to 84±4%.
Consider `CN1CCN(C2=Nc3cc(Cl)ccc3Nc3ccccc32)CC1` [Clozapine], for which the activity at 10 µM was 105% in data set [1] (setting [10]), 124% in data set [1] (setting [8]) and 101% in data set [1] (setting [9]).
Take `CCc1[nH]c2ccc(OC)cc2c1CCN(C)C` [EMDT, 2-ethyl-5-methoxy-N,N-dimethyltryptamine]: the EC50 is 20.5 µM in data set [1] (Mus musculus, 2 min, read-out: EC50 for effect on DARPP-32 phosphorylation at Thr34) and 27.4 µM in data set [1] (Mus musculus, 10 min, read-out: EC50 for effect on DARPP-32 phosphorylation at Thr75). Besides, the “phospho-Thr34 DARPP-32” value in data set [1] came to 185±19%. For the same molecule, in data set [1], the “phospho-Thr75 DARPP-32” value was 80±17%.
With `CCN(CC)CCOC(=O)c1cc(Cl)c(N)cc1OC` [SDZ205,557], in data set [1] (setting [6]), the “Percent Phospho-Ser137” value was 102(8.8) Percent and the “Percent Phospho-Thr34” value is on record as 94(16.7) Percent. Further, the “Percent Phospho-Thr75” value in data set [1] (setting [7]) is listed as 103(17.5) Percent.
On to `NC1CCN(c2cccc(Cl)n2)CC1` [SR 57227], for which, in data set [1] (setting [4]), the “Percent Phospho-Ser137” value is given as 105(9.6) Percent and the “Percent Phospho-Thr34” value is listed as 78(3.5)* Percent. Also, the “Percent Phospho-Thr75” value in data set [1] (setting [5]) is reported as 88(4.8) Percent.
As to `Clc1cccc(SC2CCNCC2)n1` [Anpirtoline], the activity at 100 µM in data set [1] (setting [10]) amounted to 93%; in data set [1] (setting [8]) it was 86%; in data set [1] (setting [9]), 102%.
Consider `NC1=N[C@H](O)[C@H]2[C@H]3O[C@]4(O)O[C@@H]([C@@H](O)[C@@]2(N1)[C@@H]4O)[C@]3(O)CO` [Tetrodotoxin], for which, in data set [1], the “Percent Phospho-Ser137” value was 98(12.5) Percent, the “Percent Phospho-Thr34” value is 91.8(5.8) Percent and the “Percent Phospho-Thr75” value is 103(3.5) Percent.
Turning to `COc1cc(CC(C)N)c(OC)cc1I.Cl` (racemic) [DOI, (±)-2,5-dimethoxy-4-iodoamphetamine hydrochloride; (±)-1-(2,5 dimethoxy-4-iodophenyl)-2-aminopropane], in data set [1] (setting [4]), the “Percent Phospho-Ser137” value is recorded as 158(8.3)* Percent and the “Percent Phospho-Thr34” value is reported as 144(16.7) Percent. Also, the “Percent Phospho-Thr75” value in data set [1] (setting [5]) was 105(4.5) Percent. Also, the EC50 in data set [1] (read-out: EC50 at phospho-Ser137 DARPP-32, neostriatal slices) came to 18.2 µM.
With `O=C(c1ccc(F)cc1)C1CCN(CCn2c(=O)[nH]c3ccccc3c2=O)CC1` [Ketanserin], the activity at 10 µM in data set [1] (setting [10]) was 97%; in data set [1] (setting [8]), 94%; in data set [1] (setting [9]), 105%.
Regarding `Nc1ncnc2c1ncn2[C@@H]1O[C@@H]2CO[P@@](O)(=S)O[C@H]2[C@H]1O` [RpcAMPs], in data set [1] (setting [11]), the “Percent Phospho-Ser137” value is recorded as 108(10.0) Percent and the “Percent Phospho-Thr34” value is listed as 88(13.1) Percent. Further, the “Percent Phospho-Thr75” value in data set [1] (neostriatal slices, compound at 300 μM, 10 min incubation) was 105(7.2) Percent.
Consider `C=CCN1CCc2c(cc(O)c(O)c2Cl)C(c2ccccc2)C1` (centres unmarked) [SKF 82958], for which the activity at 10 µM in data set [1] (setting [10]) is 115%; in data set [1] (setting [8]), 552%; in data set [1] (setting [9]) it was 65%.
The like results for `CCN1CCC[C@H]1CNC(=O)c1c(O)c(Cl)cc(Cl)c1OC` [Raclopride] were, in that order, 101%, 150% and 85%.

B1: PP2Cb: recombinant his-tagged beta isoform of protein phosphatase 2C cloned from rat striatum (protein, UniProt P35815 2-390, looked up)
Protein phosphatase 1B: GAFLDKPKTEKHNAHGAGNGLRYGLSSMQGWRVEMEDAHTAVVGIPHGLEDWSFFAVYDGHAGSRVANYCSTHLLEHITTNEDFRAADKSGFALEPSVENVKTGIRTGFLKIDEYMRNFSDLRNGMDRSGSTAVGVMISPTHIYFINCGDSRAVLCRNGQVCFSTQDHKPCNPMEKERIQNAGGSVMIQRVNGSLAVSRALGDYDYKCVDGKGPTEQLVSPEPEVYEILRAEEDEFVVLACDGIWDVMSNEELCEFVNSRLEVSDDLENVCNWVVDTCLHKGSRDNMSIVLVCFANAPKVSDEAVKRDLELDKHLESRVEEIMQKSGEEGMPDLAHVMRILSAENIPNLPPGGGLAGKRNVIEAVYSRLNPNKDNDGGAGDLEDSLVAL
modifications: His tag
notes: recombinant his-tagged beta isoform of protein phosphatase 2C cloned from rat striatum
Turning to B1, the “Vmax of pNPP hydrolysis, Mn^2+ compared to Mg^2+ (higher)” value in data set [2] (20 mM Mn^2+ versus 20 mM Mg^2+) is on record as “approximately 50 fold”. For the same molecule, the Vmax in data set [2] (in the presence of 20 mM Mg^2+) was found to be 0.20 µmol/mg/min; in data set [2] (in the presence of 20 mM Mn^2+) it was 10.72 µmol/mg/min; in data set [3] it was 0.99 µmol/mg/min. The figures for the kcat in data set [2] (in the presence of 20 mM Mg^2+), in data set [2] (in the presence of 20 mM Mn^2+) and in data set [3] were 0.16 s⁻¹, 8.42 s⁻¹ and 0.78 s⁻¹, respectively. Also, the Km in data set [2] (in the presence of 20 mM Mg^2+) was found to be 3200 µM; in data set [2] (in the presence of 20 mM Mn^2+), 2290 µM; in data set [3], 25.3 µM.
